In article PMC8523698, “Preclinical characterization of an intravenous coronavirus 3CL protease inhibitor for the potential treatment of COVID19” (Nature Communications, 2021):
Where “and” joins values, the source holds several entries; their conditions need not be identical. Identical values can stand only once.

Tests used:
CYP1A2 = molecular target: T1, CYP1A2 (Homo sapiens, UniProt P05177); assay: Reversible CYP inhibition in human liver microsomes; conditions: for activity at 0.1 µM / activity at 0.214 µM / activity at 0.979 µM / activity at 2.09 µM / activity at 4.48 µM / activity at 20.5 µM / activity at 43.8 µM / activity at 93.5 µM / activity at 200 µM: pH 7.4, Percent of Control Activity; for activity at 0.1 µM: CYP 1A2, 0.1 µM; for activity at 0.214 µM: CYP 1A2, 0.214 µM; for activity at 0.979 µM: CYP 1A2, 0.979 µM; for activity at 2.09 µM: CYP 1A2, 2.09 µM; for activity at 4.48 µM: CYP 1A2, 4.48 µM
T1 sequence (P05177 1-516): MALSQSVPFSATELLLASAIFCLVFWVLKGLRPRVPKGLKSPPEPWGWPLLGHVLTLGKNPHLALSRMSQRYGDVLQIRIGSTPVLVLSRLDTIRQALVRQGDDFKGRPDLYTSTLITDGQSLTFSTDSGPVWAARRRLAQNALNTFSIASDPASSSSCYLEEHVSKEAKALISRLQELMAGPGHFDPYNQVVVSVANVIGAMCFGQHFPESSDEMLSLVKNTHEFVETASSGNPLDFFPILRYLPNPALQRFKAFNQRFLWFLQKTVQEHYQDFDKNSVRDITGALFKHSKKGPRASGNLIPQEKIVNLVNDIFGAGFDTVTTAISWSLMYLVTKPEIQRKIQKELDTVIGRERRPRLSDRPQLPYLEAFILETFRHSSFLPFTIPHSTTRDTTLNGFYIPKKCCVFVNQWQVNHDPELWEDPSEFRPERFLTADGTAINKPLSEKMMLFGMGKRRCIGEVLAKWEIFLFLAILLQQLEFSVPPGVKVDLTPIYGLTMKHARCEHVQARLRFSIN

CYP2C9 = CYP2C9 (Homo sapiens, UniProt P11712); assay: as above
MATE1 = molecular target: T2, MATE1 (Homo sapiens, UniProt Q96FL8); assay: Transporter inhibition using transfected HEK293 cells
T2 sequence (Q96FL8 1-570): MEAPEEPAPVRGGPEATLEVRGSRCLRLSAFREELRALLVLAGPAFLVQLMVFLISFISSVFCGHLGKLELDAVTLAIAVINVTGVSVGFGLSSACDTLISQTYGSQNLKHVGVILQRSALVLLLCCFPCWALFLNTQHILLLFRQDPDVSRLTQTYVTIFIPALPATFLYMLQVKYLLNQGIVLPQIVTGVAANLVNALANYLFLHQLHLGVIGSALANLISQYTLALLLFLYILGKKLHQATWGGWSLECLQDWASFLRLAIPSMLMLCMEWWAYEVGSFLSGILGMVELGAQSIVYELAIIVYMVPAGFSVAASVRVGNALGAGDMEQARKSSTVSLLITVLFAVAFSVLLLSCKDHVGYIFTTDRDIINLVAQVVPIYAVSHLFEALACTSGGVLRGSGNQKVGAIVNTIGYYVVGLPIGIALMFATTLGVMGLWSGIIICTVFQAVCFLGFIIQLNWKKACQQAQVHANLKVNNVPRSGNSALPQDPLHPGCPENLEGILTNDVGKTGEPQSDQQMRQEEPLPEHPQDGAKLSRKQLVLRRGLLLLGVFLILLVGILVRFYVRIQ

CYP3A4/5 = assay: Time-dependent inhibition of CYP enzymes in human liver microsomes
[1] = human, microsomes, 30-Minute Preincubation
[2] = human, microsomes, Zero-Minute Preincubation

CYP2C9, sequence (P11712 whole entry): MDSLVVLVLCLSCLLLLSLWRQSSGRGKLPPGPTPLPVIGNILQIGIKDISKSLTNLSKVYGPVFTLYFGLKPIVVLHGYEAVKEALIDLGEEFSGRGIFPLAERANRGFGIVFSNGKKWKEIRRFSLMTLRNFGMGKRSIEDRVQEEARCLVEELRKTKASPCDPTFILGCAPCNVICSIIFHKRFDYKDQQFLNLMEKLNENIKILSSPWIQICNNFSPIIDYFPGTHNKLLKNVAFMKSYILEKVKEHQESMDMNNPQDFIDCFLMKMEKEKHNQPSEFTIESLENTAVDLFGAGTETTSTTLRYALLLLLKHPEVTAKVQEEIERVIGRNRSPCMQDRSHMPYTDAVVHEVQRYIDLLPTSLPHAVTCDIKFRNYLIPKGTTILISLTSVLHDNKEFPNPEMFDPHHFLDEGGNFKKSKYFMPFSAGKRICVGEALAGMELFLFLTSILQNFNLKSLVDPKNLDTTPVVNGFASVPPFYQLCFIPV

With `COc1cccc2[nH]c(C(=O)N[C@@H](CC(C)C)C(=O)N[C@@H](C[C@@H]3CCNC3=O)C(=O)CO)cc12` [PF-00835231] the “Percent of Control Activity” value (CYP1A2; CYP 1A2, 20.5 µM, Zero-Minute Preincubation, 20.5 µM) was 95.6% and 98.0%, the “Percent of Control Activity” value (CYP1A2; CYP 1A2, 43.8 µM, 30-Minute Preincubation, 43.8 µM) was 96.6% and 97.7% and the “Percent of Control Activity” value (CYP1A2; CYP 1A2, 43.8 µM, Zero-Minute Preincubation, 43.8 µM) was 92.9% and 93.4%. The “Percent of Control Activity” value (CYP1A2; CYP 1A2, 93.5 µM, 30-Minute Preincubation, 93.5 µM) was 90.5% and 95.8%, the “Percent of Control Activity” value (CYP1A2; CYP 1A2, 93.5 µM, Zero-Minute Preincubation, 93.5 µM) was 76.6% and 87.4% and the “Percent of Control Activity” value (CYP1A2; CYP 1A2, 200 µM, 30-Minute Preincubation, 200 µM) was 92.7% and 91.0%. For the same compound, the “Percent of Control Activity” value (CYP1A2; CYP 1A2, 200 µM, Zero-Minute Preincubation, 200 µM) was 81.0% and 74.4%, the IC50 (CYP1A2; human, microsomes, pH 7.4) was over 200 µM and the activity at 0.1 µM (CYP1A2; [1]) was 98%. It also gave an activity at 0.1 µM (CYP1A2; [2]) of 97.8%, an activity at 0.214 µM (CYP1A2; [1]) of 96.5% and an activity at 0.214 µM (CYP1A2; [2]) of 98.4%. For the same compound, the activity at 0.979 µM (CYP1A2; [1]) was 98.9%, the activity at 0.979 µM (CYP1A2; [2]) was 97.6% and the activity at 2.09 µM (CYP1A2; [1]) was 98.3%. The activity at 2.09 µM (CYP1A2; [2]) was 97.8%, the activity at 4.48 µM (CYP1A2; [1]) was 97% and the activity at 4.48 µM (CYP1A2; [2]) was 99.3%. The activity at 20.5 µM (CYP1A2; human, microsomes, CYP 1A2, 20.5 µM, 30-Minute Preincubation) was 97.1%, the activity at 20.5 µM (CYP1A2; human, microsomes, CYP 1A2, 20.5 µM, Zero-Minute Preincubation) was 99.4% and the activity at 43.8 µM (CYP1A2; human, microsomes, CYP 1A2, 43.8 µM, 30-Minute Preincubation) was 95.9%. For the same compound, the activity at 43.8 µM (CYP1A2; human, microsomes, CYP 1A2, 43.8 µM, Zero-Minute Preincubation) was 94.2%, the activity at 93.5 µM (CYP1A2; human, microsomes, CYP 1A2, 93.5 µM, 30-Minute Preincubation) was 89.6% and the activity at 93.5 µM (CYP1A2; human, microsomes, CYP 1A2, 93.5 µM, Zero-Minute Preincubation) was 84.6%. The activity at 200 µM (CYP1A2; human, microsomes, CYP 1A2, 200 µM, 30-Minute Preincubation) was 93.6%, the activity at 200 µM (CYP1A2; human, microsomes, CYP 1A2, 200 µM, Zero-Minute Preincubation) was 81.3% and the “Percent of Control Activity” value (CYP2C9; CYP 2C9, 0.1 µM, 30-Minute Preincubation, 0.1 µM) was 101.5% and 104.7%. The “Percent of Control Activity” value (CYP2C9; CYP 2C9, 0.1 µM, Zero-Minute Preincubation, 0.1 µM) was 113.8% and 92.8%, the “Percent of Control Activity” value (CYP2C9; CYP 2C9, 0.214 µM, 30-Minute Preincubation, 0.214 µM) was 103.1% and 106.7% and the “Percent of Control Activity” value (CYP2C9; CYP 2C9, 0.214 µM, Zero-Minute Preincubation, 0.214 µM) was 100.5% and 101.3%. The “Percent of Control Activity” value (CYP2C9; CYP 2C9, 0.979 µM, 30-Minute Preincubation, 0.979 µM) was 104.6% and 107.1%, the “Percent of Control Activity” value (CYP2C9; CYP 2C9, 0.979 µM, Zero-Minute Preincubation, 0.979 µM) was 107.0% and the “Percent of Control Activity” value (CYP2C9; CYP 2C9, 2.09 µM, 30-Minute Preincubation, 2.09 µM) was 102.9% and 114.0%. The “Percent of Control Activity” value (CYP2C9; CYP 2C9, 2.09 µM, Zero-Minute Preincubation, 2.09 µM) was 97.5%, the “Percent of Control Activity” value (CYP2C9; CYP 2C9, 4.48 µM, 30-Minute Preincubation, 4.48 µM) was 102.5% and 104.2% and the “Percent of Control Activity” value (CYP2C9; CYP 2C9, 4.48 µM, Zero-Minute Preincubation, 4.48 µM) was 95.3% and 94.9%. The “Percent of Control Activity” value (CYP2C9; CYP 2C9, 20.5 µM, 30-Minute Preincubation, 20.5 µM) was 101.2% and 96.3%, the “Percent of Control Activity” value (CYP2C9; CYP 2C9, 20.5 µM, Zero-Minute Preincubation, 20.5 µM) was 93.2% and the “Percent of Control Activity” value (CYP2C9; CYP 2C9, 43.8 µM, 30-Minute Preincubation, 43.8 µM) was 91.9% and 89.1%. For the same compound, the “Percent of Control Activity” value (CYP2C9; CYP 2C9, 43.8 µM, Zero-Minute Preincubation, 43.8 µM) was 85.3% and 88.3%, the “Percent of Control Activity” value (CYP2C9; CYP 2C9, 93.5 µM, 30-Minute Preincubation, 93.5 µM) was 76.4% and 76.0% and the “Percent of Control Activity” value (CYP2C9; CYP 2C9, 93.5 µM, Zero-Minute Preincubation, 93.5 µM) was 76.7% and 76.3%. For the same compound, the “Percent of Control Activity” value (CYP2C9; CYP 2C9, 200 µM, 30-Minute Preincubation, 200 µM) was 74.9% and 59.1%, the “Percent of Control Activity” value (CYP2C9; CYP 2C9, 200 µM, Zero-Minute Preincubation, 200 µM) was 71.9% and the IC50 (CYP2C9; human, microsomes, pH 7.4) was over 200 µM. For the same compound, the activity at 0.1 µM (CYP2C9; human, microsomes, pH 7.4, Percent of Control Activity, CYP 2C9, 0.1 µM, 30-Minute Preincubation) was 108%, the activity at 0.214 µM (CYP2C9; human, microsomes, pH 7.4, Percent of Control Activity, CYP 2C9, 0.214 µM, 30-Minute Preincubation) was 102% and the activity at 0.214 µM (CYP2C9; human, microsomes, pH 7.4, Percent of Control Activity, CYP 2C9, 0.214 µM, Zero-Minute Preincubation) was 102%. The activity at 0.979 µM (CYP2C9; human, microsomes, pH 7.4, Percent of Control Activity, CYP 2C9, 0.979 µM, 30-Minute Preincubation) was 103%, the activity at 0.979 µM (CYP2C9; human, microsomes, pH 7.4, Percent of Control Activity, CYP 2C9, 0.979 µM, Zero-Minute Preincubation) was 99.1% and the activity at 2.09 µM (CYP2C9; human, microsomes, pH 7.4, Percent of Control Activity, CYP 2C9, 2.09 µM, 30-Minute Preincubation) was 99.5%. The activity at 2.09 µM (CYP2C9; human, microsomes, pH 7.4, Percent of Control Activity, CYP 2C9, 2.09 µM, Zero-Minute Preincubation) was 110%, the activity at 4.48 µM (CYP2C9; human, microsomes, pH 7.4, Percent of Control Activity, CYP 2C9, 4.48 µM, 30-Minute Preincubation) was 102% and the activity at 4.48 µM (CYP2C9; human, microsomes, pH 7.4, Percent of Control Activity, CYP 2C9, 4.48 µM, Zero-Minute Preincubation) was 98.5%. The activity at 20.5 µM (CYP2C9; human, microsomes, pH 7.4, Percent of Control Activity, CYP 2C9, 20.5 µM, 30-Minute Preincubation) was 96.7%, the activity at 20.5 µM (CYP2C9; human, microsomes, pH 7.4, Percent of Control Activity, CYP 2C9, 20.5 µM, Zero-Minute Preincubation) was 104% and the activity at 43.8 µM (CYP2C9; human, microsomes, pH 7.4, Percent of Control Activity, CYP 2C9, 43.8 µM, 30-Minute Preincubation) was 101%. The activity at 43.8 µM (CYP2C9; human, microsomes, pH 7.4, Percent of Control Activity, CYP 2C9, 43.8 µM, Zero-Minute Preincubation) was 85.2%, the activity at 93.5 µM (CYP2C9; human, microsomes, pH 7.4, Percent of Control Activity, CYP 2C9, 93.5 µM, 30-Minute Preincubation) was 92% and the activity at 93.5 µM (CYP2C9; human, microsomes, pH 7.4, Percent of Control Activity, CYP 2C9, 93.5 µM, Zero-Minute Preincubation) was 92.6%. It also gave an activity at 200 µM (CYP2C9; human, microsomes, pH 7.4, Percent of Control Activity, CYP 2C9, 200 µM, 30-Minute Preincubation) of 77.1%, an activity at 200 µM (CYP2C9; human, microsomes, pH 7.4, Percent of Control Activity, CYP 2C9, 200 µM, Zero-Minute Preincubation) of 74.3% and an IC50 (MATE1; IC50, [14C]Metformin (20 µM)) of 175 µM. For the same compound, the IC50 (MATE1; human, pH 7.4, IC50, [14C]Metformin (20 µM)) was over 20 µM, the “KI ± SE” value (CYP3A4/5; Midazolam (20 µM)) was 163 ± 31 µM and the “KI ± SE” value (CYP3A4/5; Midazolam (20 µM), listed as PF00835231) was 163 µM. The “KI ± SE” value (CYP3A4/5; Testosterone ([…])) was 168 ± 8 µM and the “time-dependent inhibition (TDI) signal” value (CYP3A4/5; pooled HLM) was “weak signal”.
